Data on 1 compound can be found in ChEMBL document CHEMBL3593212, “Synthesis and evaluation of novel 1H-pyrrolo[2,3-b]pyridine-5-carboxamide derivatives as potent and orally efficacious immunomodulators targeting JAK3” (Bioorg Med Chem, 2015).

Usually clearance stands for a measure of how efficiently the substance is removed, as volume per time. The half-life is how long it takes for the measured level to halve. As a reminder, the AUC(0-t) is exposure summed from dosing to a finite time, without extrapolation to infinity. The IC50 is the concentration that inhibits the measured activity by half. As usually defined, the Tmax is the time from dosing to the highest level.

The nature of series [1]: Total clearance in cynomolgus monkey at 1 mg/kg, iv by LC/MS/MS method. Format: ADME, organism-based, Macaca fascicularis. Particulars: in vivo.
Series [2] is described as follows: Half life in Sprague-Dawley rat at 1 mg/kg, iv by LC/MS/MS method. Format: ADME, organism-based. To be noted: in vivo.
Series [3] is described as follows: AUC (0 to 24 hrs) in Sprague-Dawley rat at 1 mg/kg, iv by LC/MS/MS method. In kind it is ADME, organism-based. More on the design: dose 1 mg/kg, time < 24 hr, route intravenous. Particulars: in vivo.
The target in series [4] is Cyclin-dependent kinase 2/cyclin A (Homo sapiens, UniProt P24941). The series can be described thus: Inhibition of CDK2/CycA (unknown origin). Format: protein-complex assay.
The target of series [5] is Voltage-gated inwardly rectifying potassium channel KCNH2 (Homo sapiens, UniProt Q12809).
Description: Inhibition of human ERG expressed in CHOK1 cells incubated for 10 mins by Rb efflux assay
Series [6] is described as follows: Volume of distribution at steady state in beagle dog at 1 mg/kg, iv by LC/MS/MS method. Particulars: in vivo, read-out: Vdss. Format: ADME, organism-based, Canis lupus familiaris.
A short description of series [7]: Total clearance in Sprague-Dawley rat at 1 mg/kg, iv by LC/MS/MS method. Format: ADME, organism-based. To be noted: in vivo.
For series [8], the target named is Serine/threonine-protein kinase Chk1 (Homo sapiens, UniProt O14757). The series can be described thus: Inhibition of CHK1 (unknown origin).
The target in series [9] is Tyrosine-protein kinase ITK/TSK (Homo sapiens, UniProt Q08881). The series is described as follows: Inhibition of ITK (unknown origin).
In series [10] the target is Calcium/calmodulin-dependent protein kinase type II subunit alpha (Homo sapiens, UniProt Q9UQM7). The series can be described thus: Inhibition of CaMK2a (unknown origin).
A further series has as its target Aurora kinase C (Homo sapiens, UniProt Q9UQB9). The series is described as follows: Inhibition of AurC (unknown origin).
The target in series [11] is RAF proto-oncogene serine/threonine-protein kinase (Homo sapiens, UniProt P04049). The series can be described thus: Inhibition of RAF1 (unknown origin).
Series [12] can be described thus: Half life in cynomolgus monkey at 1 mg/kg, iv by LC/MS/MS method. In kind it is ADME, organism-based, Macaca fascicularis. Particulars: in vivo.
Series [13] in a line: AUC (0 to 24 hrs) in beagle dog at 1 mg/kg, iv by LC/MS/MS method. More on the design: dose 1 mg/kg, time < 24 hr, route intravenous. To be noted: in vivo. Format: ADME, organism-based, Canis lupus familiaris.
Series [14] in a line: Effective permeability of the compound at pH 7.4 by PAMPA method. Format: physicochemical. Particulars: read-out: Peff. (The PAMPA barrier holds no transporters, so it reflects passive diffusion.)
Series [15] is described as follows: Intrinsic clearance in rat liver microsomes at 0.2 uM in presence of NADPH generating system by LC/MS/MS method. In kind it is ADME. To be noted: read-out: CLH. Background: Liver microsomes are vesicles of endoplasmic reticulum, rich in cytochrome P450 enzymes.
Series [16] is described as follows: Tmax in beagle dog at 3 mg/kg, po by LC/MS/MS method. In kind it is ADME, organism-based, Canis lupus familiaris. Particulars: in vivo.
A short description of series [17]: Intrinsic clearance in human liver microsomes at 0.2 uM in presence of NADPH generating system by LC/MS/MS method. Format: ADME. Particulars: read-out: CLH.
The target in series [18] is Interleukin-1 receptor-associated kinase 4 (Homo sapiens, UniProt Q9NWZ3). The series can be described thus: Inhibition of IRAK4 (unknown origin).
For another series, the target named is Ephrin type-A receptor 2 (Homo sapiens, UniProt P29317). The series is described as follows: Inhibition of EPHA2 (unknown origin).
The target in series [19] is Protein kinase C theta type (Homo sapiens, UniProt Q04759). The series is described as follows: Inhibition of PKCtheta (unknown origin).
Protein kinase C theta type, sequence (Q04759 whole entry): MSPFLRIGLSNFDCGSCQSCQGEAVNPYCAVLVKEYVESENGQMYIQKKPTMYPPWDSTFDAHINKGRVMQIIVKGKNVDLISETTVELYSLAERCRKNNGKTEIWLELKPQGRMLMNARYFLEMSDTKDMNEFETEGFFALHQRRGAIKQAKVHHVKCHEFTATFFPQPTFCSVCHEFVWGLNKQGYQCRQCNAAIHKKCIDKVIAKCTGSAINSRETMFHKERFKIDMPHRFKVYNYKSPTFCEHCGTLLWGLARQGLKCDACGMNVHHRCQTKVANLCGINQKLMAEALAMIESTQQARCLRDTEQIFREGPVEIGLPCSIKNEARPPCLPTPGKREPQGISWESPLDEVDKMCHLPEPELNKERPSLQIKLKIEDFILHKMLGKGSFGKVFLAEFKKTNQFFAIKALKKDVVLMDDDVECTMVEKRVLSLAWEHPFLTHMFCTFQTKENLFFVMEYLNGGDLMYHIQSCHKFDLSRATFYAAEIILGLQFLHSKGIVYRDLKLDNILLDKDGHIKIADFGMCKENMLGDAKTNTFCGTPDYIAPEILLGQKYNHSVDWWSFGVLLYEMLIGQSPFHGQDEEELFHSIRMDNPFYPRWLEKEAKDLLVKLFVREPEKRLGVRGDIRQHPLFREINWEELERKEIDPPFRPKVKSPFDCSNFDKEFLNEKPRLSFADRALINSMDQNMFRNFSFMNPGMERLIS

Tyrosine-protein kinase ITK/TSK, sequence (Q08881 whole entry): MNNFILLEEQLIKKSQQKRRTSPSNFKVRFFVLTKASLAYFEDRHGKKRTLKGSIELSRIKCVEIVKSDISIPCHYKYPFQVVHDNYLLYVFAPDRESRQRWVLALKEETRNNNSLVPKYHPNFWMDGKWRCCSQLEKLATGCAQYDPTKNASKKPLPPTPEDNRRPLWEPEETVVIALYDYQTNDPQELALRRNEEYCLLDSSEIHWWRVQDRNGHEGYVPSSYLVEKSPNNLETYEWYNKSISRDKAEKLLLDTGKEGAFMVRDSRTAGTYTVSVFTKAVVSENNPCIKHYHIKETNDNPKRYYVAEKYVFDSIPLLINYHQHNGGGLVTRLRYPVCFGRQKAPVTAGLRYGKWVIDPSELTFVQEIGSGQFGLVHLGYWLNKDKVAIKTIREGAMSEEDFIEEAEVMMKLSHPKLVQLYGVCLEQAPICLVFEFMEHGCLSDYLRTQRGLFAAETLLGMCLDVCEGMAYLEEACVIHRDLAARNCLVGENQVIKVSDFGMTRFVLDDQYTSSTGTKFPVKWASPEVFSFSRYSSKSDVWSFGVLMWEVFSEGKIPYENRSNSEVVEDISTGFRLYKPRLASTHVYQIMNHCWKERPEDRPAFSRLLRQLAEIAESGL
Interleukin-1 receptor-associated kinase 4, sequence (Q9NWZ3 whole entry): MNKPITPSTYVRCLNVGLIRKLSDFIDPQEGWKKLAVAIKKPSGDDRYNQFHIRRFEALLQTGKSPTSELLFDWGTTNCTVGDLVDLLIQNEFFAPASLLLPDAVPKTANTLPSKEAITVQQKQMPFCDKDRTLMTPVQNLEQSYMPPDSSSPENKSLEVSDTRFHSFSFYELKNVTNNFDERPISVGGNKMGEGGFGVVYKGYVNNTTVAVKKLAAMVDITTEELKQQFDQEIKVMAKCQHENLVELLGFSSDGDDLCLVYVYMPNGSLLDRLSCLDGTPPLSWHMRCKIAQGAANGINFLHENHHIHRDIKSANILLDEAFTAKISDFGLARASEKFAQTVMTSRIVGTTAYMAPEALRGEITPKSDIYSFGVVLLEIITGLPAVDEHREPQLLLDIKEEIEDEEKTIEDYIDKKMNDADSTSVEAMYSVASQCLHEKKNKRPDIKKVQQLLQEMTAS
Ephrin type-A receptor 2, sequence (P29317 whole entry): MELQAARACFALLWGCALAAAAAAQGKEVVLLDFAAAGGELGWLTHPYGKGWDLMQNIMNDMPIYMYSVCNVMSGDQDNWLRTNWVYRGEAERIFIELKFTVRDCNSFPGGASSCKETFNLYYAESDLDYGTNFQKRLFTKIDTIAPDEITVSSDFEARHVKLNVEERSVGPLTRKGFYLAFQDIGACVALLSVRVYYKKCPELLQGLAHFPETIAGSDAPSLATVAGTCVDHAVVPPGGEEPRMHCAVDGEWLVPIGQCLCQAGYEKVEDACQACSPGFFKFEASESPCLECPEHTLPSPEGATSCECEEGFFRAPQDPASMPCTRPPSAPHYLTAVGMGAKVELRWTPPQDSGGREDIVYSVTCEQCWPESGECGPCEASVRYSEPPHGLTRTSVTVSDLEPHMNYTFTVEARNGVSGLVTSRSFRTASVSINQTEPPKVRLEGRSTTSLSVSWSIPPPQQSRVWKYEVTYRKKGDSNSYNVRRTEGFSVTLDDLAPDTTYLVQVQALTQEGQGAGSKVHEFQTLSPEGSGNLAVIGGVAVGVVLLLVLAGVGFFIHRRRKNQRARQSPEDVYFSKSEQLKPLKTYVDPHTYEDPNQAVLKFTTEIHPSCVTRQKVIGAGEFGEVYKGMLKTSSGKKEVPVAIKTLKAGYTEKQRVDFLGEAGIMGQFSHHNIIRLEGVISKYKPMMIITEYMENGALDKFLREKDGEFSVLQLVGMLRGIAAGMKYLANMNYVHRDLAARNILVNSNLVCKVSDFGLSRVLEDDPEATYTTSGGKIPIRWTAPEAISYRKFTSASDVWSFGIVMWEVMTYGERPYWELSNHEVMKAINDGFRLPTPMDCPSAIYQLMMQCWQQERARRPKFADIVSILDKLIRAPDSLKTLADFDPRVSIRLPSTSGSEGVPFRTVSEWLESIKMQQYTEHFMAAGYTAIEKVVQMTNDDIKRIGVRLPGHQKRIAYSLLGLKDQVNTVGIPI
Serine/threonine-protein kinase Chk1, sequence (O14757 whole entry): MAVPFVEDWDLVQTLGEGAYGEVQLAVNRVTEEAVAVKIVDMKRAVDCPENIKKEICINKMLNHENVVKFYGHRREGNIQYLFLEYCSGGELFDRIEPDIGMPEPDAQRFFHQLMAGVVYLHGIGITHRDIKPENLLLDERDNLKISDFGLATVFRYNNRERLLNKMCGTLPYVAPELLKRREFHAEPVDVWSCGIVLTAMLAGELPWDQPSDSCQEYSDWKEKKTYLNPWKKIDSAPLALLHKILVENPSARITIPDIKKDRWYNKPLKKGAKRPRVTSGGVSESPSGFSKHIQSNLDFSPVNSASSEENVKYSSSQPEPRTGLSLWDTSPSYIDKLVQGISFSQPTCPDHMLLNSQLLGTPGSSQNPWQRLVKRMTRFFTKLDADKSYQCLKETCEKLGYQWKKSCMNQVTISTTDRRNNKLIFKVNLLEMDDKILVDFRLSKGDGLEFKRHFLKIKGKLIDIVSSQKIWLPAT
RAF proto-oncogene serine/threonine-protein kinase, sequence (P04049 whole entry): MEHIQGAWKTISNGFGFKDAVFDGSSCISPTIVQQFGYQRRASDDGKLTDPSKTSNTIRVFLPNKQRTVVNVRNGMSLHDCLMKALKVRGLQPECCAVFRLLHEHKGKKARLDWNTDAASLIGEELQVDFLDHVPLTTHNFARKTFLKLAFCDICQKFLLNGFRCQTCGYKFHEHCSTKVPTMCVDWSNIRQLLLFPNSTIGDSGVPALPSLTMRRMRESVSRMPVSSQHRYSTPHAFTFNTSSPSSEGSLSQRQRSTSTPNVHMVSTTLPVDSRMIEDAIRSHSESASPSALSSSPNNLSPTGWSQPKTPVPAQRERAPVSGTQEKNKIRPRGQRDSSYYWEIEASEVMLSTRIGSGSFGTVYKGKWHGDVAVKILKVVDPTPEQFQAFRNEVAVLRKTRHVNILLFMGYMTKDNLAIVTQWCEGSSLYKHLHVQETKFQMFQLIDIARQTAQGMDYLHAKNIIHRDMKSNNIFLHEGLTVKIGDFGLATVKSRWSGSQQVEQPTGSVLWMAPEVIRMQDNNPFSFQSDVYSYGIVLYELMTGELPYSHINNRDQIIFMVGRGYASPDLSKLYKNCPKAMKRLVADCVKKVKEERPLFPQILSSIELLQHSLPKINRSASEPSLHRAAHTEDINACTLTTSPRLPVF
Calcium/calmodulin-dependent protein kinase type II subunit alpha, sequence (Q9UQM7 whole entry): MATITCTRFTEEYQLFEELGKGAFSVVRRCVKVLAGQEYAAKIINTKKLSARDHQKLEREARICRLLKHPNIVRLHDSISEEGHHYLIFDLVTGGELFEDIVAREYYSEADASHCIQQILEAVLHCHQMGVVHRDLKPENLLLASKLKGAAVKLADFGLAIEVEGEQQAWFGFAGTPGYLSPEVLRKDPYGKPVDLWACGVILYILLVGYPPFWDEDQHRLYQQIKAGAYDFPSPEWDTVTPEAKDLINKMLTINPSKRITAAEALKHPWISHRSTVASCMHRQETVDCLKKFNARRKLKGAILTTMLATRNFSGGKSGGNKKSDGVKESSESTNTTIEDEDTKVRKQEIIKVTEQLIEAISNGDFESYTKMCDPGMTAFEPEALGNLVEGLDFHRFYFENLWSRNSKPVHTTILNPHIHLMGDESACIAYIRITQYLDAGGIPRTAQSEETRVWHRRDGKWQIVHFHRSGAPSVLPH
Aurora kinase C, sequence (Q9UQB9 whole entry): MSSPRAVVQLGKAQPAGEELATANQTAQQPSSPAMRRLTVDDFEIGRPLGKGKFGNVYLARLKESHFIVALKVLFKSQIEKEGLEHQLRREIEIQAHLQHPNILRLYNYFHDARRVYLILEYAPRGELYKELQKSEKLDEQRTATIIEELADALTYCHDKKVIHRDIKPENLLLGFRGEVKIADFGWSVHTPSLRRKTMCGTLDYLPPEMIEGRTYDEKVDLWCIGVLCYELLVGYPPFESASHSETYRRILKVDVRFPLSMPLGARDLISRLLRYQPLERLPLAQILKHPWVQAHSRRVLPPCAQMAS

On to `N#Cc1ccc(N2CC[C@@H](Nc3c(C(N)=O)cnc4[nH]ccc34)[C@@H](F)C2)nc1`, for which the clearance was 3.8 mL/min/kg in [1] and 5.3 mL/min/kg in series [7]. Moreover, the results for the half-life in series [2] and in [12] were 3 h and 5.4 h, respectively. The AUC(0-t) at 24 h in [3] was 3200 ng·h/mL; in [13] it was 5650 ng·h/mL. Further, the IC50 is 590 nM in series [4]; over 100000 nM in series [5]; 950 nM in series [8]; over 1000 nM in [9]; 1000 nM in series [10]; over 1000 nM against Aurora kinase C. Also, the IC50 is over 1000 nM in [11], over 1000 nM in [18], over 1000 nM at Ephrin type-A receptor 2 and 320 nM in series [19]. Further, the Vd in series [6] turned out to be 1 L/kg. Further, the Papp in series [14] stood at 9 ×10⁻⁶ cm/s. Moreover, the results for the CLint scaled at 0.2 µM in [15] and in [17] were 27.5 mL/min/kg and 4.8 mL/min/kg, respectively. In [16], the Tmax was determined as 2.7 h.
